According to US20110021623A1, “SYSTEM AND METHODS OF MELANOMA PREVENTION” (Regents of the University of New Mexico, priority 2006, published 2011):
Like-named read-outs stand apart in the source and are kept apart here.

Key:
[1] = system: mouse melanocyte cell line (B16); assay: DNA adduct assay (13C tyrosine enrichment, isotope ratio mass spectrometry); assay type: cell-based; details: B16 cells, 300 μM PTU immediately after 20 min full spectrum UV, 5 μM 13C tyrosine 1 hour after UV, DNA isolated after 4 hours
Experimental: FIG. 4 is a graph illustrating a DNA adduct assay. Mouse melanocyte cell line (B16) was incubated with 300 μM phenylthiourea (PTU) immediately after ultraviolet (UV) radiation exposure. After 20 minutes of full spectrum ultraviolet (UV) radiation exposure, 5 μM ^13C tyrosine was added 1 hour after ultraviolet (UV) radiation exposure. After 4 hours, DNA was isolated and adducts determined as an increase in ^13C enrichment over baseline after combustion and isotope ratio mass spectrometry.

[2] = system: mouse melanocyte cell line (B16); assay: Melanocyte survival by trypan blue exclusion after solar simulated UV exposure; assay type: cell-based; details: for Melanocyte survival (viability) in ultraviolet (UV) exposed cells: 20 min solar simulated UV (~15 MEDS), increasing doses of inhibitor after exposure, trypan blue exclusion 24 hours after UV
Experimental: FIG. 3 is a graph illustrating death of melanocytes with tyrosinase inhibitors applied subsequent to ultraviolet (UV) radiation exposure. The graph illustrates results from a study conducted with mice melanocyte cell line (B16). The mouse melanocyte cell line (B16) was exposed to solar simulated ultraviolet (UV) radiation for 20 minutes. The solar ultraviolet (UV) radiation was simulated using a 300 W Xe solar simulator, equivalent to approximately 15 Minimal Erythemal Doses (MEDS), or equivalent to strong sunburn. After ultraviolet (UV) radiation exposure, cells were treated with increasing doses of the following tyrosinase inhibitors: kojic acid (shown in FIG. 3A) and methyl gentisate (shown in FIG. 3B). Melanocyte survival was determined by trypan blue exclusion 24 hours after ultraviolet (UV) radiation exposure. It was shown that there was no effect of tyrosinase inhibitors on the survival in non-ultraviolet (UV) exposed cells (not shown in FIG. 3). […] Preventing quinones from passing out of the melanosome substantially protects melanocytes from DNA damage.

Row | Structure (SMILES) | DNA adducts (13C enrichment over baseline, delta value) [1] | Melanocyte survival (viability) in ultraviolet (UV) exposed cells ([2]; B16 cells) | Melanocyte survival in non-ultraviolet (UV) exposed cells ([2]; B16 cells, no UV exposure, trypan blue exclusion) | Melanocyte survival in non-ultraviolet (UV) exposed cells [2]
1 | NC(=S)Nc1ccccc1 [PTU, phenylthiourea] | greatly decreases DNA adducts | – | – | –
2 | O=c1cc(CO)occ1O [kojic acid] | – | dose dependent increase in viability | no effect | –
3 | COC(=O)c1cc(O)ccc1O [methyl gentisate] | – | dose dependent increase in viability | – | no effect
